Experimental data from patent US6706740B2, “Fungicidal heterocyclic aromatic amides and their compositions, methods of use and preparation” (Dow AgroSciences LLC, priority 1999, dated 2004).

Tested on: Magnaporthe grisea (Pyricularia oryzae—PYRIOR)
Assay: microbe, parasite or virus in culture
Assay type: cell-based
Settings: Pyricularia oryzae, read-out: PYRIOR in vitro Growth Inhibition

| Compound | inhibition at 25 ppm |
| --- | --- |
| CC(NC(=O)c1ccncc1O)c1ccc(Cl)cc1 (centres unmarked) [Compound 509] | < 80% |
| COc1ccnc(C(=O)Nc2cccc(Oc3ccccc3C)c2)c1O [Compound 412] | > 80% |
| COc1ccnc(C(=O)NC2CC(C)(C)C(=O)C(C)(C)C2)c1O [Compound 266] | < 80% |
| COc1ccnc(C(=O)NC2CC(C)(C)CC3(C2)CC3(F)F)c1O (centres unmarked) [Compound 255] | < 80% |

Tested on: Rhizoctonia solani (RHIZSO)
Assay: microbe, parasite or virus in culture
Assay type: cell-based
Settings: Rhizoctonia solani, read-out: RHIZSO in vitro Growth Inhibition

| Compound | inhibition at 25 ppm |
| --- | --- |
| CC(NC(=O)c1ccncc1O)c1ccc(Cl)cc1 (centres unmarked) [Compound 509] | < 80% |
| COc1ccnc(C(=O)Nc2cccc(Oc3ccccc3C)c2)c1O [Compound 412] | < 80% |
| COc1ccnc(C(=O)NC2CC(C)(C)C(=O)C(C)(C)C2)c1O [Compound 266] | < 80% |
| COc1ccnc(C(=O)NC2CC(C)(C)CC3(C2)CC3(F)F)c1O (centres unmarked) [Compound 255] | < 80% |

Tested on: Mycosphaerella graminicola (Septoria tritici—SEPTTR)
Assay: In vitro fungal growth inhibition, Mycosphaerella graminicola (SEPTTR)
Assay type: cell-based
Settings: Zymoseptoria tritici; 25 ppm in growth medium; read-out: SEPTTR in vitro Growth Inhibition

| Compound | inhibition at 25 ppm |
| --- | --- |
| COc1ccnc(C(=O)Nc2cccc(Oc3ccccc3C)c2)c1O [Compound 412] | > 80% |
| COc1ccnc(C(=O)NC2CC(C)(C)C(=O)C(C)(C)C2)c1O [Compound 266] | < 80% |
| COc1ccnc(C(=O)NC2CC(C)(C)CC3(C2)CC3(F)F)c1O (centres unmarked) [Compound 255] | > 80% |

Same assay, conditions: Zymoseptoria tritici; 25 ppm in the growth medium; read-out: SEPTTR in vitro Growth Inhibition

| Compound | inhibition at 25 ppm |
| --- | --- |
| CC(NC(=O)c1ccncc1O)c1ccc(Cl)cc1 (centres unmarked) [Compound 509] | < 80% |

Tested on: Stagonospora nodorum (Leptosphaeria nodorum—LEPTNO)
Assay: In vitro fungal growth inhibition, Stagonospora nodorum (LEPTNO)
Assay type: cell-based
Settings: Leptosphaeria; 25 ppm in growth medium; read-out: LEPTNO in vitro Growth Inhibition

| Compound | inhibition at 25 ppm |
| --- | --- |
| COc1ccnc(C(=O)Nc2cccc(Oc3ccccc3C)c2)c1O [Compound 412] | > 80% |
| COc1ccnc(C(=O)NC2CC(C)(C)C(=O)C(C)(C)C2)c1O [Compound 266] | < 80% |
| COc1ccnc(C(=O)NC2CC(C)(C)CC3(C2)CC3(F)F)c1O (centres unmarked) [Compound 255] | < 80% |

Same assay, conditions: Leptosphaeria; 25 ppm in the growth medium; read-out: LEPTNO in vitro Growth Inhibition

| Compound | inhibition at 25 ppm |
| --- | --- |
| CC(NC(=O)c1ccncc1O)c1ccc(Cl)cc1 (centres unmarked) [Compound 509] | < 80% |

Tested on: Ustilago maydis (USTIMA)
Assay: microbe, parasite or virus in culture
Assay type: cell-based
Settings: Mycosarcoma maydis, read-out: USTIMA in vitro Growth Inhibition

| Compound | inhibition at 25 ppm |
| --- | --- |
| CC(NC(=O)c1ccncc1O)c1ccc(Cl)cc1 (centres unmarked) [Compound 509] | < 80% |
| COc1ccnc(C(=O)Nc2cccc(Oc3ccccc3C)c2)c1O [Compound 412] | < 80% |
| COc1ccnc(C(=O)NC2CC(C)(C)C(=O)C(C)(C)C2)c1O [Compound 266] | < 80% |
| COc1ccnc(C(=O)NC2CC(C)(C)CC3(C2)CC3(F)F)c1O (centres unmarked) [Compound 255] | < 80% |

Tested on: Phytophthora infestans (PHYTIN)
Assay: microbe, parasite or virus in culture
Assay type: cell-based
Settings: Phytophthora infestans, read-out: PHYTIN in vitro Growth Inhibition

| Compound | inhibition at 25 ppm |
| --- | --- |
| CC(NC(=O)c1ccncc1O)c1ccc(Cl)cc1 (centres unmarked) [Compound 509] | < 80% |
| COc1ccnc(C(=O)Nc2cccc(Oc3ccccc3C)c2)c1O [Compound 412] | < 80% |
| COc1ccnc(C(=O)NC2CC(C)(C)C(=O)C(C)(C)C2)c1O [Compound 266] | < 80% |
| COc1ccnc(C(=O)NC2CC(C)(C)CC3(C2)CC3(F)F)c1O (centres unmarked) [Compound 255] | < 80% |

Tested on: Phytophthora infestans—PHYTIN
Assay: whole plant or invertebrate
Assay type: in vivo
Settings: Phytophthora, in Solanum lycopersicum, 24 h, read-out: PHYTIN in vivo 1 Day Protectant

| Compound | pest or weed control at 100 ppm |
| --- | --- |
| CC(NC(=O)c1ccncc1O)c1ccc(Cl)cc1 (centres unmarked) [Compound 509] | < 25% |
| COc1ccnc(C(=O)Nc2cccc(Oc3ccccc3C)c2)c1O [Compound 412] | < 25% |
| COc1ccnc(C(=O)NC2CC(C)(C)C(=O)C(C)(C)C2)c1O [Compound 266] | < 25% |
| COc1ccnc(C(=O)NC2CC(C)(C)CC3(C2)CC3(F)F)c1O (centres unmarked) [Compound 255] | < 25% |

Tested on: Puccinia recondita—PUCCRT
Assay: Brown Rust of Wheat, in vivo whole plant, 24 Hour Protectant
Settings: Puccinia; 100 ppm spray, 24 hour protectant, wheat; control of fungal infection vs untreated plants; read-out: PUCCRT in vivo 1 Day Protectant

| Compound | pest or weed control at 100 ppm |
| --- | --- |
| COc1ccnc(C(=O)NC2CC(C)(C)C(=O)C(C)(C)C2)c1O [Compound 266] | < 25% |
| COc1ccnc(C(=O)NC2CC(C)(C)CC3(C2)CC3(F)F)c1O (centres unmarked) [Compound 255] | 25 to 74% |

Same assay, conditions: Puccinia; 100 ppm spray, wheat, 24 hour protectant; control of fungal infection vs untreated plants; read-out: PUCCRT in vivo 1 Day Protectant

| Compound | pest or weed control at 100 ppm |
| --- | --- |
| COc1ccnc(C(=O)Nc2cccc(Oc3ccccc3C)c2)c1O [Compound 412] | 25 to 74% |

Same assay, conditions: Puccinia; wheat plants sprayed at 100 ppm, inoculated after 24 hours; control of fungal infection vs untreated plants; read-out: PUCCRT in vivo 1 Day Protectant

| Compound | pest or weed control at 100 ppm |
| --- | --- |
| CC(NC(=O)c1ccncc1O)c1ccc(Cl)cc1 (centres unmarked) [Compound 509] | < 25% |

Tested on: Erysiphe graminis—ERYSGT
Assay: Powdery Mildew of Wheat, in vivo whole plant, 24 Hour Protectant
Settings: Erysiphe; 100 ppm spray, 24 hour protectant, wheat; control of fungal infection vs untreated plants; read-out: ERYSGT in vivo 1 Day Protectant

| Compound | pest or weed control at 100 ppm |
| --- | --- |
| COc1ccnc(C(=O)NC2CC(C)(C)C(=O)C(C)(C)C2)c1O [Compound 266] | < 25% |
| COc1ccnc(C(=O)NC2CC(C)(C)CC3(C2)CC3(F)F)c1O (centres unmarked) [Compound 255] | < 25% |

Same assay, conditions: Erysiphe; 100 ppm spray, wheat, 24 hour protectant; control of fungal infection vs untreated plants; read-out: ERYSGT in vivo 1 Day Protectant

| Compound | pest or weed control at 100 ppm |
| --- | --- |
| COc1ccnc(C(=O)Nc2cccc(Oc3ccccc3C)c2)c1O [Compound 412] | < 25% |

Same assay, conditions: Erysiphe; wheat plants sprayed at 100 ppm, inoculated after 24 hours; control of fungal infection vs untreated plants; read-out: ERYSGT in vivo 1 Day Protectant

| Compound | pest or weed control at 100 ppm |
| --- | --- |
| CC(NC(=O)c1ccncc1O)c1ccc(Cl)cc1 (centres unmarked) [Compound 509] | < 25% |

Tested on: Septoria tritici—SEPTTR
Assay: Leaf Blotch of Wheat, in vivo whole plant, 24 Hour Protectant
Settings: Zymoseptoria tritici, 24 h, 100 ppm spray, 24 hour protectant, wheat; control of fungal infection vs untreated plants; read-out: SEPTTR in vivo 1 Day Protectant

| Compound | pest or weed control at 100 ppm |
| --- | --- |
| COc1ccnc(C(=O)NC2CC(C)(C)C(=O)C(C)(C)C2)c1O [Compound 266] | 25 to 74% |
| COc1ccnc(C(=O)NC2CC(C)(C)CC3(C2)CC3(F)F)c1O (centres unmarked) [Compound 255] | 25 to 74% |

Same assay, conditions: Zymoseptoria tritici, 24 h, 100 ppm spray, wheat, 24 hour protectant; control of fungal infection vs untreated plants; read-out: SEPTTR in vivo 1 Day Protectant

| Compound | pest or weed control at 100 ppm |
| --- | --- |
| COc1ccnc(C(=O)Nc2cccc(Oc3ccccc3C)c2)c1O [Compound 412] | < 25% |

Same assay, conditions: Zymoseptoria tritici, 24 h, wheat plants sprayed at 100 ppm, inoculated after 24 hours; control of fungal infection vs untreated plants; read-out: SEPTTR in vivo 1 Day Protectant

| Compound | pest or weed control at 100 ppm |
| --- | --- |
| CC(NC(=O)c1ccncc1O)c1ccc(Cl)cc1 (centres unmarked) [Compound 509] | < 25% |

Tested on: Leptosphaeria nodorum—LEPTNO
Assay: Glume Blotch of Wheat, in vivo whole plant, 24 Hour Protectant
Settings: 100 ppm spray, 24 hour protectant, wheat; control of fungal infection vs untreated plants

| Compound | LEPTNO in vivo 1 Day Protectant |
| --- | --- |
| COc1ccnc(C(=O)NC2CC(C)(C)CC3(C2)CC3(F)F)c1O (centres unmarked) [Compound 255] | + + |

Same assay, conditions: Leptosphaeria; 100 ppm spray, 24 hour protectant, wheat; control of fungal infection vs untreated plants; read-out: LEPTNO in vivo 1 Day Protectant

| Compound | pest or weed control at 100 ppm |
| --- | --- |
| COc1ccnc(C(=O)NC2CC(C)(C)C(=O)C(C)(C)C2)c1O [Compound 266] | 25 to 74% |

Same assay, conditions: Leptosphaeria; 100 ppm spray, wheat, 24 hour protectant; control of fungal infection vs untreated plants; read-out: LEPTNO in vivo 1 Day Protectant

| Compound | pest or weed control at 100 ppm |
| --- | --- |
| COc1ccnc(C(=O)Nc2cccc(Oc3ccccc3C)c2)c1O [Compound 412] | < 25% |

Same assay, conditions: Leptosphaeria; wheat plants sprayed at 100 ppm, inoculated after 24 hours; control of fungal infection vs untreated plants; read-out: LEPTNO in vivo 1 Day Protectant

| Compound | pest or weed control at 100 ppm |
| --- | --- |
| CC(NC(=O)c1ccncc1O)c1ccc(Cl)cc1 (centres unmarked) [Compound 509] | < 25% |
